Legend:
caspase-3 = experiment: Caspase-3 activity assay; format: cell-based; details: human NSCLC cells (H460, PC-9), 24 h
Description: The caspase-3 assay was performed as described previously.[23] According to the manufacturer’s protocol, the activity of caspase‐3 was evaluated by using a caspase‐3 colorimetric assay kit (Abcam, Cambridge, UK). H460 and PC-9 cells were collected and resuspended in lysis buffer. After incubation on ice for 10 min, the cell lysate was centrifuged at 12,000 rpm for 10 min at 4 °C, and the protein concentration in the supernatants was measured using the Bradford dye method. The supernatants were incubated with a reaction buffer containing 200 µM devd-p-nitroanilide, for caspase‐3 in a caspase assay buffer at 37 °C with 10 mM dithiothreitol for 2 h. The activity of caspase-3 was determined by measuring the absorbance at 405 nm. Each experiment was done in triplicate for three independent experiments.

[1] = test system: P-CDK9, CDK9, P-STAT3 and S2 RNAPII; experiment: Western blot of CDK9/STAT3 pathway proteins; format: cell-based, human; details: H460 and PC-9 cells, 12 h; acetyl-bufalin 25-200 nM, SNS-032 200 nM
Description: Tissue proteins were extracted with tissue protein lysate buffer. Cells were grown to different densities and extracted with cell protein lysate buffer. The protein was mixed with loading buffer and boiled for 10 min at 100 °C, then loaded and separated by 10% or 12% sodium dodecyl sulfate-polyacrylamide gel (SDS-PAGE) and then transferred onto a PVDF membrane blocking with 5% skim milk. The blots were incubated overnight with specific primary antibodies at 4 °C. On the second day, after washing with TBST (a mixture of tris-buffered saline (TBS) and Tween 20) three times, the […] membranes were incubated with horseradish peroxidase-conjugated secondary antibodies for 1 h. The immunoreactive bands were visualised with enhanced chemiluminescence reagent.

H460 and PC-9 cells = experiment: Cell proliferation in cells transfected with CDK9 siRNA or control siRNA; format: cell-based, human
Description: The cytotoxicity and viability of human NSCLC cells and normal cells were determined by MTT assay. MTT assay was performed as described previously.[22] MTT assay was used to determine the cell cytotoxicity and viability in human NSCLC cells. Cells (5 × 10^3 cells/well) were plated in 96-well plates and attached overnight. After the proper treatment, the MTT solution was added at 25 µL/well and incubated at 37 °C for 4 h. The formazan crystals were dissolved in 150 µL of DMSO, and the optical density (OD) was measured using a Microplate Reader at 490 nm. The cell viability was calculated by the following formula: viability = (average OD values of treatment wells/average OD values of vehicle control wells) × 100%. And half-maximal inhibitory concentration (IC50) values were determined by GraphPad Pro Prism 7.0.
The siRNA targeting human CDK9 was purchased from Genepharma (Shanghai, China) with the following sequence: siCDK9-1: 5′-[…] TT-3′, siCDK9-2: 5′-[…]-3′, siCDK9-3: 5′-[…]-3′. Cells were transfected with 50 nM siRNA using Lipofectamine 3000 (Invitrogen, CA, USA) for 48 h.

H460 xenograft = format: in vivo, BALB/c nude mice; details: 2 mg/kg i.p. every other day
Description: All animal procedures were done accordingly with the Institutional laboratory animal research guidelines and were approved by Wenzhou Medical University Animal Policy and Welfare Committee. Female athymic BALB/c nude mice (5–6 weeks old) and immune-defective non-obese […] diabetic severe combined immunodeficiency (NOD-SCID) mice (6–8 weeks old) were purchased from the Vital River Experimental Animal Center (Beijing, China). All the mice were housed under 12 h light–dark cycles at 25 °C and free for water and diet. For the xenograft model, the H460 cells (5 × 10^6 cells were mixed with an equal volume of PBS and Matrigel in 100 μL) were implanted on the hind flank of nude mice. Once tumour volumes reached ~50 mm^3, 24 mice were divided into four experimental groups (six mice per group, no differences in mean body weights or tumour volumes between the groups) and intraperitoneal injection with 2 mg/kg SNS-032 (a recognised CDK9 inhibitor), bufalin and acetyl-bufalin every other day. Tumour volume was measured as V = (L × W × W)/2, in which L and W represent the length and width of tumour. Animals were killed by cervical dislocation once the tumour volume reached 1000 mm^3. The tumours, hearts, livers, kidneys and lungs were removed for use in the histology and western blot analysis.

STAT3 = STAT3 luciferase-report assay; format: cell-based, human; details: PC-9 and H460 cells, 0-200 nM, 12 h
Description: STAT3 activation was detected by the STAT3 luciferase reporter plasmid (PGLSTAT3-LUC), as was previously described.[23] Simply put, PC-9 and H460 cells were seeded in 24-well plates and incubated for 24 h before transfection. The cells were grown to different densities and co-transfected with pGLSTAT3-Luc and pRL-TK (a plasmid encoding Renilla luciferase) for 6 h using Lipofectamine 3000 (Invitrogen, Carlsbad, CA, USA). Finally, the cells were treated with different concentrations of […] for 12 h. Luciferase activity was assessed by SpectraMax ID3 (Molecular Devices, San Jose, CA, USA). The inhibition of STAT3 activity by acetyl-bufalin was calculated as the ratio between the value of firefly and Renilla luciferase activity. Each experiment was done in triplicate in three independent experiments.

Q: For `CC(=O)OC1CCC2(C)C(CCC3C2CCC2(C)C(c4ccc(=O)oc4)CCC32O)C1` (centres unmarked) [acetyl-bufalin], which “BAX expression and caspase-3 activity” value (caspase-3) is on record?
A: The value was “dose-dependently increased”.

Q: And the “P-CDK9, CDK9, P-STAT3 and S2 RNAPII expressions” value [1]?
A: Its value is “significantly dose-dependently decreased”.

Q: And the “cell proliferation of siCDK9 cells” value (H460 and PC-9 cells; H460 and PC-9 transfected with CDK9 siRNA1, 48 h)?
A: The value was “did not significantly affect”.

Q: What about the “cell proliferation of control siRNA cells” value (H460 and PC-9 cells; H460 and PC-9 transfected with control siRNA, 48 h) of the same molecule?
A: The value was “hampered cell proliferation”.

Q: What about the “gross toxicities on hearts, livers, kidneys or lungs” value (H460 xenograft; H&E staining) of the same molecule?
A: Its value is “no gross toxicities”.

Q: And the “tumour growth (weight and volume)” value (H460 xenograft; compared with vehicle)?
A: The value was “significantly inhibited tumour growth”.

Q: And the “comparison of inhibitory effect between treatments” value (H460 xenograft; versus SNS-032 and bufalin)?
A: Its value is “best inhibitory effect”.

Q: What about the “P-STAT3 activation (luciferase reporter)” value (STAT3) of the same molecule?
A: The value was “significantly inhibited”.

Source: paper PMC7851395 (British Journal of Cancer, 2020)
